The values below come from patent US5155099A, “Alkylphosphonoserines and pharmaceutical compositions useful as cytostatic agents” (Hafslund Nycomed Pharma Aktiengesellschaft, priority 1988, dated 1992).

The test system of the test is Ehrlich ascites tumor cells. Description: Concentration-dependent inhibition of growth of Ehrlich ascites tumor cells (antiproliferative action). The test is classed as cell-based. An excerpt:
The novel alkylphosphonoserines have a strong cytostatic and virustatic action. In order to determine the cytostatic action, the antiproliferative action was investigated in Ehrlich ascites tumor cells. It can be seen here that the compounds according to the invention have excellent cytostatic action. They can therefore be employed as cytostatics or virustatics, alone or in a mixture with other active substances, in the form of customary pharmaceutical preparations.
Concentration-dependent Inhibition of Growth of Ehrlich Ascites Tumor Cells

`CCCCCCCCCCCCCCCCP(=O)(O)OC[C@H](N)C(=O)O` [n-Hexadecyl phosphono-L-serine, n-Hexadecylphosphono-L-serine] registered an inhibition at 100 µM (Concentration 1 × 10^-4 M) of 89%. Further, where the note is “Concentration 1 × 10^-5 M”, at 10 µM the inhibition was 13%. The compound also showed an inhibition at 30 µM (Concentration 3 × 10^-5 M) of 45%. Further, the inhibition at 3 µM (Concentration 3 × 10^-6 M) stood at 9%.

Broadly, the inhibition is the drop in the measured response relative to a control, in per cent. A high value points to a response far below the control.
